# Laboratory results published in patent US10995104B2, “Catalysts for reversing formaldehyde adducts and crosslinks” (Roche Molecular Systems, Inc., priority 2017, dated 2021).
# System: methylene-bis-dAMP dimer
# Assay: Reversal of cross-linking of the methylene-bis-dAMP dimer with catalysts, monitored by HPLC
# Conditions: 5.0 mM catalyst, 1.0 mM dAMP dimer, 50 mM phosphate buffer pH 5.0, 60° C., aliquots at 10-90 minutes (FIG. 3)
# Protocol: Reverse crosslinking of the methylene-bis-dAMP dimer (as shown in FIG. 2) were monitored by HPLC. […] For each reaction mixture, an aliquot (10 μl) was taken at 10 minutes, 20 minutes, 40 minutes, 60 minutes and 90 minutes.
row,SMILES,"reversal of cross-linking (shown as % of dAMP produced), rate compared with no catalyst"
1,"Cl.Nc1ccccc1B(O)O [Compound 2, 2-Aminophenylboronic acid]",rates that are much faster than when no catalyst was added
2,"Cc1ccc(N)c(B(O)O)c1 [Compound 3, (2-Amino-5-methylphenyl)boronic acid]",rates that are much faster than when no catalyst was added
3,"CCOP(=O)(OCC)C(N)c1ccccc1.Cl (stereo not shown) [Compound 6, (Aminophenylmethyl)phosphonic acid diethyl ester]",rates that are much faster than when no catalyst was added
4,"[Br][Bi]([Br])[Br] [Compound 7, Bismuth (III) bromide]",rates that are much faster than when no catalyst was added
